Experimental data reported in patent US20020026053A1, “Novel 3-(substituted) -2- indolinones compounds and use thereof as inhibitors of protein kinase activity” (priority 1997, published 2002).

Target: T1, EGFR (Homo sapiens, UniProt P00533)
T1 construct: endogenous in cells; host or cells: A431 cells (lysate, captured with SUMO1 anti-EGFR antibody)
Assay: Biochemical EGFR Assay
Set-up: concentration or dose not given beside the values
Conditions: protocol P.167
Method in brief: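 EGFR from A431 lysate was captured on anti-EGFR-coated wells and preincubated 30 min with compound (diluted 1:10 in TBS) at room temperature. After ATP/MnCl2 phosphorylation for 5 min, the reaction was stopped with EDTA. Phosphotyrosine was detected by ELISA (anti-phosphotyrosine, peroxidase conjugate, ABTS) at 410 nm.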

T1 sequence (P00533 25-1210): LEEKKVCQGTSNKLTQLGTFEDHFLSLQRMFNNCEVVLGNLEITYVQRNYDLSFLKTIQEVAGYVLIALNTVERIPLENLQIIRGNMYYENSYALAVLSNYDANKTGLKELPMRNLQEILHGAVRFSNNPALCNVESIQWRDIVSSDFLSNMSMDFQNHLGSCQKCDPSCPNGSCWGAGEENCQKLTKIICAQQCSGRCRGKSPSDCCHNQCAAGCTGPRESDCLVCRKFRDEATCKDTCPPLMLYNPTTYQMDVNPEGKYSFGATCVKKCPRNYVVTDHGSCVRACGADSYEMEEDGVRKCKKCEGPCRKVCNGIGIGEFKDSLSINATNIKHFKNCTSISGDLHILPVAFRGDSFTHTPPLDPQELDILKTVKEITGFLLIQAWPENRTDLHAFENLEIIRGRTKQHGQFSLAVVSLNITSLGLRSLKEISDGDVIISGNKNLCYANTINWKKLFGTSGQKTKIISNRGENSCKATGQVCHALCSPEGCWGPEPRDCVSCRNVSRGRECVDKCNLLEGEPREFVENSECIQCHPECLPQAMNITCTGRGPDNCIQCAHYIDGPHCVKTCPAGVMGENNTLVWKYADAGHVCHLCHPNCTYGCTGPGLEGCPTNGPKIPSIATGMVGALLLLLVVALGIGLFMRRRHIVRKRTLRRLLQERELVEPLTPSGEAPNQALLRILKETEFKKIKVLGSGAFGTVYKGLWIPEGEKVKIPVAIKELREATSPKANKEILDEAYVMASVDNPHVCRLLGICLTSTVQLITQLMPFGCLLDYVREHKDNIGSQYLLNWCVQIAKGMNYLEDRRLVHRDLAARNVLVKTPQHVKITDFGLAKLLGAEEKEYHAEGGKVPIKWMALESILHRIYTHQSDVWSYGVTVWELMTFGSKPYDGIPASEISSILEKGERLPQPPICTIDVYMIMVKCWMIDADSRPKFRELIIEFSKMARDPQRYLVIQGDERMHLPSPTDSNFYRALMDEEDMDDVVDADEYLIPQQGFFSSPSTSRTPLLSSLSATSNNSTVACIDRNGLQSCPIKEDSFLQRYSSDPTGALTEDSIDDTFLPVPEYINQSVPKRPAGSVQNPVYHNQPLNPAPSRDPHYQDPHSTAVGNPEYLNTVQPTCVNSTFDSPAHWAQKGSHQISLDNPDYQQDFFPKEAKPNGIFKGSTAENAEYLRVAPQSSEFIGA

Row | SMILES | Biochem EGFR % Inhibition (P.167)
1 | Cc1c(Br)cc(Br)c2c1C(=Cc1cc(O)cc(O)c1)C(=O)N2 [10738/H07] | −13.4%
2 | Cc1c(Br)cc(Br)c2c1C(=Cc1ccc(Cl)c(Cl)c1)C(=O)N2 [10738/H08] | −12.1%
3 | COc1ccccc1C=C1C(=O)Nc2c(Br)cc(Br)c(C)c21 [10738/H09] | 1.6%
4 | Cc1c(Br)cc(Br)c2c1C(=Cc1ccc(C(C)C)cc1)C(=O)N2 [10738/H10] | 11.4%
5 | CCCOc1ccc(C=C2C(=O)Nc3c(Br)cc(Br)c(C)c32)cc1 [10738/H11] | −13.4%
6 | COc1ccc(C=C2C(=O)Nc3c(Br)cc(Br)cc32)cc1C [10739/A02] | 0.0%
7 | O=C1Nc2c(Br)cc(Br)cc2C1=Cc1cccc(OCc2ccccc2)c1 [10739/A03] | 5.1%
8 | O=C1Nc2c(Br)cc(Br)cc2C1=Cc1ccc(OCc2ccccc2)cc1 [10739/A04] | −6.3%
9 | O=C1Nc2c(Br)cc(Br)cc2C1=CC1COc2ccccc2O1 (centres unmarked) [10739/A05] | 10.7%
10 | O=C1Nc2c(Br)cc(Br)cc2C1=Cc1ccc(O)cc1Cl [10739/A06] | −5.5%
11 | O=C1Nc2c(Br)cc(Br)cc2C1=Cc1cc(O)c(O)c(O)c1 [10739/A07] | 65.6%
12 | COc1ccc(Oc2cccc(C=C3C(=O)Nc4c(Br)cc(Br)cc43)c2)cc1 [10739/A08] | 6.2%
13 | CN(C)CCCOc1ccc(C=C2C(=O)Nc3c(Br)cc(Br)cc32)cc1 [10739/A09] | 26.9%
14 | O=C1Nc2c(Br)cc(Br)cc2C1=Cc1ccoc1 [10739/A10] | 20.7%
15 | O=C1Nc2c(Br)cc(Br)cc2C1=Cc1ccc(CO)o1 [10739/A11] | −8.7%
16 | COc1ccc(C=C2C(=O)Nc3ccc(I)cc32)cc1C [10739/B02] | 18.1%
17 | O=C1Nc2ccc(I)cc2C1=Cc1cccc(OCc2ccccc2)c1 [10739/B03] | 9.6%
18 | O=C1Nc2ccc(I)cc2C1=Cc1ccc(OCc2ccccc2)cc1 [10739/B04] | 17.5%
19 | O=C1Nc2ccc(I)cc2C1=CC1COc2ccccc2O1 (centres unmarked) [10739/B05] | 32.0%
20 | O=C1Nc2ccc(I)cc2C1=Cc1ccc(O)cc1Cl [10739/B06] | 9.2%
21 | O=C1Nc2ccc(I)cc2C1=Cc1cc(O)c(O)c(O)c1 [10739/B07] | 59.4%
22 | COc1ccc(Oc2cccc(C=C3C(=O)Nc4ccc(I)cc43)c2)cc1 [10739/B08] | 19.8%
23 | CN(C)CCCOc1ccc(C=C2C(=O)Nc3ccc(I)cc32)cc1 [10739/B09] | 11.9%
24 | O=C1Nc2ccc(I)cc2C1=Cc1ccoc1 [10739/B10] | −2.1%
25 | O=C1Nc2ccc(I)cc2C1=Cc1ccc(CO)o1 [10739/B11] | −4.2%
26 | COc1ccc(C=C2C(=O)Nc3ccc(Br)c(C)c32)cc1C [10739/C02] | −1.7%

Row | SMILES | Biochem EGFR % Inhibition (P.167)
27 | Cc1c(Br)ccc2c1C(=Cc1cccc(OCc3ccccc3)c1)C(=O)N2 [10739/C03] | 18.3%
28 | Cc1c(Br)ccc2c1C(=Cc1ccc(OCc3ccccc3)cc1)C(=O)N2 [10739/C04] | 1.5%
29 | Cc1c(Br)ccc2c1C(=CC1COc3ccccc3O1)C(=O)N2 (centres unmarked) [10739/C05] | −1.7%
30 | Cc1c(Br)ccc2c1C(=Cc1ccc(O)cc1Cl)C(=O)N2 [10739/C06] | −17.0%
31 | Cc1c(Br)ccc2c1C(=Cc1cc(O)c(O)c(O)c1)C(=O)N2 [10739/C07] | 34.7%
32 | COc1ccc(Oc2cccc(C=C3C(=O)Nc4ccc(Br)c(C)c43)c2)cc1 [10739/C08] | −1.7%
33 | Cc1c(Br)ccc2c1C(=Cc1ccc(OCCCN(C)C)cc1)C(=O)N2 [10739/C09] | −2.7%
34 | Cc1c(Br)ccc2c1C(=Cc1ccoc1)C(=O)N2 [10739/C10] | −7.0%
35 | Cc1c(Br)ccc2c1C(=Cc1ccc(CO)o1)C(=O)N2 [10739/C11] | −17.0%
36 | CNS(=O)(=O)c1ccc2c(c1)C(=Cc1ccc(OC)c(C)c1)C(=O)N2 [10739/D02] | 2.6%
37 | CNS(=O)(=O)c1ccc2c(c1)C(=Cc1cccc(OCc3ccccc3)c1)C(=O)N2 [10739/D03] | 24.7%
38 | CNS(=O)(=O)c1ccc2c(c1)C(=Cc1ccc(OCc3ccccc3)cc1)C(=O)N2 [10739/D04] | −6.4%
39 | CNS(=O)(=O)c1ccc2c(c1)C(=CC1COc3ccccc3O1)C(=O)N2 (centres unmarked) [10739/D05] | −10.6%
40 | CNS(=O)(=O)c1ccc2c(c1)C(=Cc1ccc(O)cc1Cl)C(=O)N2 [10739/D06] | −19.8%
41 | CNS(=O)(=O)c1ccc2c(c1)C(=Cc1cc(O)c(O)c(O)c1)C(=O)N2 [10739/D07] | 21.1%
42 | CNS(=O)(=O)c1ccc2c(c1)C(=Cc1cccc(Oc3ccc(OC)cc3)c1)C(=O)N2 [10739/D08] | −16.8%
43 | CNS(=O)(=O)c1ccc2c(c1)C(=Cc1ccc(OCCCN(C)C)cc1)C(=O)N2 [10739/D09] | −15.1%
44 | COc1ccc(C=C2C(=O)Nc3ccc(S(=O)(=O)Nc4ccc(C(F)(F)F)cc4)cc32)cc1C [10739/E02] | −8.3%
45 | O=C1Nc2ccc(S(=O)(=O)Nc3ccc(C(F)(F)F)cc3)cc2C1=Cc1cccc(OCc2ccccc2)c1 [10739/E03] | 4.9%
46 | O=C1Nc2ccc(S(=O)(=O)Nc3ccc(C(F)(F)F)cc3)cc2C1=Cc1ccc(OCc2ccccc2)cc1 [10739/E04] | −35.5%
47 | O=C1Nc2ccc(S(=O)(=O)Nc3ccc(C(F)(F)F)cc3)cc2C1=CC1COc2ccccc2O1 (centres unmarked) [10739/E05] | −11.3%
48 | O=C1Nc2ccc(S(=O)(=O)Nc3ccc(C(F)(F)F)cc3)cc2C1=Cc1ccc(O)cc1Cl [10739/E06] | 33.5%
49 | O=C1Nc2ccc(S(=O)(=O)Nc3ccc(C(F)(F)F)cc3)cc2C1=Cc1cc(O)c(O)c(O)c1 [10739/E07] | 79.6%
50 | COc1ccc(Oc2cccc(C=C3C(=O)Nc4ccc(S(=O)(=O)Nc5ccc(C(F)(F)F)cc5)cc43)c2)cc1 [10739/E08] | −17.4%
51 | CN(C)CCCOc1ccc(C=C2C(=O)Nc3ccc(S(=O)(=O)Nc4ccc(C(F)(F)F)cc4)cc32)cc1 [10739/E09] | 15.2%
52 | O=C1Nc2ccc(S(=O)(=O)Nc3ccc(C(F)(F)F)cc3)cc2C1=Cc1ccoc1 [10739/E10] | 17.5%

Row | SMILES | Biochem EGFR % Inhibition (P.167)
53 | O=C1Nc2ccc(S(=O)(=O)Nc3ccc(C(F)(F)F)cc3)cc2C1=Cc1ccc(CO)o1 [10739/E11] | −23.4%
54 | COc1ccc(C=C2C(=O)Nc3ccc(S(=O)(=O)N4CCOCC4)cc32)cc1C [10739/F02] | −3.6%
55 | O=C1Nc2ccc(S(=O)(=O)N3CCOCC3)cc2C1=Cc1cccc(OCc2ccccc2)c1 [10739/F03] | −10.8%
56 | O=C1Nc2ccc(S(=O)(=O)N3CCOCC3)cc2C1=Cc1ccc(OCc2ccccc2)cc1 [10739/F04] | −7.0%
57 | O=C1Nc2ccc(S(=O)(=O)N3CCOCC3)cc2C1=CC1COc2ccccc2O1 (centres unmarked) [10739/F05] | −16.4%
58 | O=C1Nc2ccc(S(=O)(=O)N3CCOCC3)cc2C1=Cc1ccc(O)cc1Cl [10739/F06] | −15.3%
59 | O=C1Nc2ccc(S(=O)(=O)N3CCOCC3)cc2C1=Cc1cc(O)c(O)c(O)c1 [10739/F07] | 62.4%
60 | COc1ccc(Oc2cccc(C=C3C(=O)Nc4ccc(S(=O)(=O)N5CCOCC5)cc43)c2)cc1 [10739/F08] | −19.1%
61 | CN(C)CCCOc1ccc(C=C2C(=O)Nc3ccc(S(=O)(=O)N4CCOCC4)cc32)cc1 [10739/F09] | −19.6%
62 | O=C1Nc2ccc(S(=O)(=O)N3CCOCC3)cc2C1=Cc1ccoc1 [10739/F10] | −16.8%
63 | O=C1Nc2ccc(S(=O)(=O)N3CCOCC3)cc2C1=Cc1ccc(CO)o1 [10739/F11] | −38.5%
64 | COc1ccc(C=C2C(=O)Nc3ccc(CCCl)cc32)cc1C [10739/G02] | −5.1%
65 | O=C1Nc2ccc(CCCl)cc2C1=Cc1cccc(OCc2ccccc2)c1 [10739/G03] | 2.4%
66 | O=C1Nc2ccc(CCCl)cc2C1=Cc1ccc(OCc2ccccc2)cc1 [10739/G04] | −12.3%
67 | O=C1Nc2ccc(CCCl)cc2C1=CC1COc2ccccc2O1 (centres unmarked) [10739/G05] | −23.0%
68 | O=C1Nc2ccc(CCCl)cc2C1=Cc1ccc(O)cc1Cl [10739/G06] | −31.2%
69 | O=C1Nc2ccc(CCCl)cc2C1=Cc1cc(O)c(O)c(O)c1 [10739/G07] | 10.0%
70 | COc1ccc(Oc2cccc(C=C3C(=O)Nc4ccc(CCCl)cc43)c2)cc1 [10739/G08] | −18.5%
71 | CN(C)CCCOc1ccc(C=C2C(=O)Nc3ccc(CCCl)cc32)cc1 [10739/G09] | −39.8%
72 | O=C1Nc2ccc(CCCl)cc2C1=Cc1ccoc1 [10739/G10] | −38.1%
73 | O=C1Nc2ccc(CCCl)cc2C1=Cc1ccc(CO)o1 [10739/G11] | −23.2%
74 | COc1ccc(C=C2C(=O)Nc3c(Br)cc(Br)c(C)c32)cc1C [10739/H02] | −12.3%
75 | Cc1c(Br)cc(Br)c2c1C(=Cc1cccc(OCc3ccccc3)c1)C(=O)N2 [10739/H03] | 10.0%
76 | Cc1c(Br)cc(Br)c2c1C(=Cc1ccc(OCc3ccccc3)cc1)C(=O)N2 [10739/H04] | −21.9%
77 | Cc1c(Br)cc(Br)c2c1C(=Cc1ccc(O)cc1Cl)C(=O)N2 [10739/H06] | −22.1%
